Experiments:
AMBEL (Ragweed, Common) = test: Postemergence herbicidal evaluation; type: in vivo, Ambrosia artemisifolia; settings: for Herbicidal rating AMBEL: postemergence
Procedure, shortened: (§1)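 Seedlings grown about two weeks were sprayed at 40 psi with compound dispersed in 50/50 acetone/water plus 0.5% TWEEN 20, at about 0.0156 to 0.500 kg/ha. Plants were kept in the greenhouse and scored 4–5 weeks later on a 0–9 visual scale against untreated controls.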

[1] = tested on: TRZAWR (Wheat, Winter, cv Riband); test: Postemergence herbicidal evaluation; type: in vivo, Triticum aestivum; settings: for Herbicidal rating TRZAWR: postemergence
Procedure, shortened: as §1

SETVI (Foxtail, Green) [2] = test: Postemergence herbicidal evaluation; type: in vivo, Setaria viridis; settings: for Herbicidal rating SETVI: postemergence
Procedure, shortened: as §1

[3] = tested on: SAGPY (Arrowhead (Pygmaea)); test: Preemergence weed control under flooded paddy conditions; type: in vivo, Sagittaria pygmaea; settings: rated 3-4 weeks after treatment
Procedure, shortened: (§2)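 Herbicidal effect is scored visually on a 0-9 scale against an untreated control, three to four weeks after compounds are pipetted into the flood water (1.5 to 3 cm deep) over seeds planted in silt loam at 0.5 cm depth. Rates: about 0.0313 to 0.500 kg/ha.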

ABUTH (Velvetleaf) [4] = test: Preemergence herbicidal evaluation; type: in vivo, Abutilon theophrasti; settings: rated 4-5 weeks after treatment
Procedure, shortened: (§3)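 Each species is sown separately in potting soil over roughly an inch of soil before any emergence. The soil surface then receives an aqueous acetone spray delivering about 0.0156 to 0.500 kg/ha of compound. After four to five weeks, injury is scored from 0 to 9 relative to a control.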

MOOVA (Monochoria) = test: Preemergence weed control under flooded paddy conditions; type: in vivo, Monochoria vaginalis; settings: rated 3-4 weeks after treatment
Procedure, shortened: as §2

CASOB (Sicklepod) = test: Preemergence herbicidal evaluation; type: in vivo, Cassia obtusifolia; settings: rated 4-5 weeks after treatment
Procedure, shortened: as §3

ECHCG (Barnyardgrass) = test: Postemergence herbicidal evaluation; type: in vivo, Echinochloa crus-galli; settings: for Herbicidal rating ECHCG: postemergence
Procedure, shortened: as §1

SETVI (Foxtail, Green) [5] = test: Preemergence herbicidal evaluation; type: in vivo, Setaria viridis; settings: rated 4-5 weeks after treatment
Procedure, shortened: as §3

ABUTH (Velvetleaf) [6] = test: Postemergence herbicidal evaluation; type: in vivo, Abutilon theophrasti; settings: for Herbicidal rating ABUTH: postemergence
Procedure, shortened: as §1

ORYSAT (Rice, Tebonnet) = test: Postemergence herbicidal evaluation; type: in vivo, Oryza sativa, (L.) Tebonnet; settings: for Herbicidal rating ORYSAT: postemergence
Procedure, shortened: as §1

[7] = tested on: GLXMAW (Soybean, Williams); test: Postemergence herbicidal evaluation; type: in vivo, Glycine max, (L.) Merr. cv Williams; settings: for Herbicidal rating GLXMAW: postemergence
Procedure, shortened: as §1

[8] = rate 0.0156 kg/ha, rating scale 0-9
[9] = rate 0.0625 kg/ha, rating scale 0-9
[10] = rate 0.1250 kg/ha, rating scale 0-9
[11] = rate 0.2500 kg/ha, rating scale 0-9
[12] = rate 0.0313 kg/ha, rating scale 0-9

COCCCN1C(=O)CSC1=Nc1cc(-n2c(=O)cc(C(F)(F)F)n(C)c2=O)c(F)cc1Cl [Compound 172, 3-{4-Chloro-2-fluoro-5-{[3-(3-methoxypropyl)-4-oxo-2-thiazolidinylidene]amino}phenyl}-1-methyl-6-(trifluoromethyl)-2,4(1H, 3H)-pyrimidinedione]
Postemergence herbicidal rating AMBEL (AMBEL (Ragweed, Common); Rate 0.0313 kg/ha): 9.0
Postemergence herbicidal rating AMBEL (AMBEL (Ragweed, Common); Rate 0.0625 kg/ha): 9.0
Postemergence herbicidal rating AMBEL (AMBEL (Ragweed, Common); rate 0.0156 kg/ha): 6.0
Postemergence herbicidal rating TRZAWR ([1]; Rate 0.0313 kg/ha): 4.5
Postemergence herbicidal rating TRZAWR ([1]; Rate 0.0625 kg/ha): 4.0
Postemergence herbicidal rating TRZAWR ([1]; rate 0.0156 kg/ha): 4.0
Postemergence herbicidal rating SETVI (SETVI (Foxtail, Green) [2]; Rate 0.0313 kg/ha): 3.0
Postemergence herbicidal rating SETVI (SETVI (Foxtail, Green) [2]; Rate 0.0625 kg/ha): 2.0
Postemergence herbicidal rating SETVI (SETVI (Foxtail, Green) [2]; rate 0.0156 kg/ha): 2.0
herbicidal effect rating, SAGPY ([3]; 0.0313 kg/ha): 6.0
herbicidal effect rating, SAGPY ([3]; 0.0625 kg/ha): 6.0
herbicidal effect rating, SAGPY ([3]; 0.1250 kg/ha): 9.0
herbicidal effect rating, SAGPY ([3]; 0.2500 kg/ha): 9.0
Preemergence herbicidal rating ABUTH (ABUTH (Velvetleaf) [4]; 0.0156 kg/ha): 9.0
Preemergence herbicidal rating ABUTH (ABUTH (Velvetleaf) [4]; 0.0313 kg/ha): 9.0
Preemergence herbicidal rating ABUTH (ABUTH (Velvetleaf) [4]; 0.0625 kg/ha): 9.0
Preemergence herbicidal rating ABUTH (ABUTH (Velvetleaf) [4]; 0.1250 kg/ha): 9.0
Preemergence herbicidal rating ABUTH (ABUTH (Velvetleaf) [4]; 0.2500 kg/ha): 9.0
herbicidal effect rating, MOOVA (MOOVA (Monochoria); 0.0313 kg/ha): 9.0
herbicidal effect rating, MOOVA (MOOVA (Monochoria); 0.0625 kg/ha): 9.0
herbicidal effect rating, MOOVA (MOOVA (Monochoria); 0.1250 kg/ha): 9.0
herbicidal effect rating, MOOVA (MOOVA (Monochoria); 0.2500 kg/ha): 9.0
Preemergence herbicidal rating CASOB (CASOB (Sicklepod); 0.0156 kg/ha): 1.0
Preemergence herbicidal rating CASOB (CASOB (Sicklepod); 0.0313 kg/ha): 3.0
Preemergence herbicidal rating CASOB (CASOB (Sicklepod); 0.0625 kg/ha): 7.0
Preemergence herbicidal rating CASOB (CASOB (Sicklepod); 0.1250 kg/ha): 9.0
Preemergence herbicidal rating CASOB (CASOB (Sicklepod); 0.2500 kg/ha): 9.0
Postemergence herbicidal rating ECHCG (ECHCG (Barnyardgrass); Rate 0.0313 kg/ha): 3.0
Postemergence herbicidal rating ECHCG (ECHCG (Barnyardgrass); Rate 0.0625 kg/ha): 3.0
Postemergence herbicidal rating ECHCG (ECHCG (Barnyardgrass); rate 0.0156 kg/ha): 2.0
Preemergence herbicidal rating SETVI (SETVI (Foxtail, Green) [5]; 0.0156 kg/ha): 5.0
Preemergence herbicidal rating SETVI (SETVI (Foxtail, Green) [5]; 0.0313 kg/ha): 7.0
Preemergence herbicidal rating SETVI (SETVI (Foxtail, Green) [5]; 0.0625 kg/ha): 9.0
Preemergence herbicidal rating SETVI (SETVI (Foxtail, Green) [5]; 0.1250 kg/ha): 9.0
Preemergence herbicidal rating SETVI (SETVI (Foxtail, Green) [5]; 0.2500 kg/ha): 9.0
Postemergence herbicidal rating ABUTH (ABUTH (Velvetleaf) [6]; Rate 0.0313 kg/ha): 9.0
Postemergence herbicidal rating ABUTH (ABUTH (Velvetleaf) [6]; Rate 0.0625 kg/ha): 9.0
Postemergence herbicidal rating ABUTH (ABUTH (Velvetleaf) [6]; rate 0.0156 kg/ha): 9.0
Postemergence herbicidal rating ORYSAT (ORYSAT (Rice, Tebonnet); Rate 0.0313 kg/ha): 3.5
Postemergence herbicidal rating ORYSAT (ORYSAT (Rice, Tebonnet); Rate 0.0625 kg/ha): 4.0
Postemergence herbicidal rating ORYSAT (ORYSAT (Rice, Tebonnet); rate 0.0156 kg/ha): 3.5
Postemergence herbicidal rating GLXMAW ([7]; Rate 0.0313 kg/ha): 6.5
Postemergence herbicidal rating GLXMAW ([7]; Rate 0.0625 kg/ha): 7.0
Postemergence herbicidal rating GLXMAW ([7]; rate 0.0156 kg/ha): 6.0

Cc1cc(C)cc(CN2C(=O)CSC2=Nc2cc(-n3c(=O)cc(C(F)(F)F)n(C)c3=O)c(F)cc2Cl)c1 [Compound 146, 3-{4-Chloro-5-{[3-(3,5-dimethylbenzyl)-4-oxo-2-thiazolidinylidene]amino}-2-fluorophenyl}-1-methyl-6-(trifluoromethyl)-2,4(1H,3H)-pyrimidinedione]
Herbicidal rating AMBEL (AMBEL (Ragweed, Common); rate 0.0156 kg/ha): 9.0
Herbicidal rating AMBEL (AMBEL (Ragweed, Common); rate 0.0313 kg/ha): 9.0
Herbicidal rating AMBEL (AMBEL (Ragweed, Common); rate 0.0625 kg/ha): 9.0
Herbicidal rating TRZAWR ([1]; rate 0.0156 kg/ha): 2.0
Herbicidal rating TRZAWR ([1]; rate 0.0313 kg/ha): 3.5
Herbicidal rating TRZAWR ([1]; rate 0.0625 kg/ha): 4.5
Herbicidal rating SETVI (SETVI (Foxtail, Green) [2]; rate 0.0156 kg/ha): 1.0
Herbicidal rating SETVI (SETVI (Foxtail, Green) [2]; rate 0.0313 kg/ha): 2.0
Herbicidal rating SETVI (SETVI (Foxtail, Green) [2]; rate 0.0625 kg/ha): 3.0
herbicidal effect rating, SAGPY ([3]; 0.0313 kg/ha): 0.0
herbicidal effect rating, SAGPY ([3]; 0.0625 kg/ha): 0.0
herbicidal effect rating, SAGPY ([3]; 0.1250 kg/ha): 3.0
herbicidal effect rating, SAGPY ([3]; 0.2500 kg/ha): 4.0
Preemergence herbicidal rating ABUTH (ABUTH (Velvetleaf) [4]; [8]): 0.0
Preemergence herbicidal rating ABUTH (ABUTH (Velvetleaf) [4]; [9]): 1.0
Preemergence herbicidal rating ABUTH (ABUTH (Velvetleaf) [4]; [10]): 9.0
Preemergence herbicidal rating ABUTH (ABUTH (Velvetleaf) [4]; [11]): 9.0
herbicidal effect rating, MOOVA (MOOVA (Monochoria); 0.0313 kg/ha): 4.0
herbicidal effect rating, MOOVA (MOOVA (Monochoria); 0.0625 kg/ha): 6.0
herbicidal effect rating, MOOVA (MOOVA (Monochoria); 0.1250 kg/ha): 6.0
herbicidal effect rating, MOOVA (MOOVA (Monochoria); 0.2500 kg/ha): 9.0
Preemergence herbicidal rating CASOB (CASOB (Sicklepod); [8]): 0.0
Preemergence herbicidal rating CASOB (CASOB (Sicklepod); [12]): 0.0
Preemergence herbicidal rating CASOB (CASOB (Sicklepod); [9]): 0.0
Preemergence herbicidal rating CASOB (CASOB (Sicklepod); [10]): 1.0
Preemergence herbicidal rating CASOB (CASOB (Sicklepod); [11]): 1.0
Herbicidal rating ECHCG (ECHCG (Barnyardgrass); rate 0.0156 kg/ha): 1.0
Herbicidal rating ECHCG (ECHCG (Barnyardgrass); rate 0.0313 kg/ha): 1.0
Herbicidal rating ECHCG (ECHCG (Barnyardgrass); rate 0.0625 kg/ha): 2.0
Preemergence herbicidal rating SETVI (SETVI (Foxtail, Green) [5]; [8]): 0.0
Preemergence herbicidal rating SETVI (SETVI (Foxtail, Green) [5]; [12]): 0.0
Preemergence herbicidal rating SETVI (SETVI (Foxtail, Green) [5]; [9]): 0.0
Preemergence herbicidal rating SETVI (SETVI (Foxtail, Green) [5]; [10]): 3.0
Preemergence herbicidal rating SETVI (SETVI (Foxtail, Green) [5]; [11]): 5.0
Herbicidal rating ABUTH (ABUTH (Velvetleaf) [6]; rate 0.0156 kg/ha): 9.0
Herbicidal rating ABUTH (ABUTH (Velvetleaf) [6]; rate 0.0313 kg/ha): 9.0
Herbicidal rating ABUTH (ABUTH (Velvetleaf) [6]; rate 0.0625 kg/ha): 9.0
Herbicidal rating ORYSAT (ORYSAT (Rice, Tebonnet); rate 0.0156 kg/ha): 2.0
Herbicidal rating ORYSAT (ORYSAT (Rice, Tebonnet); rate 0.0313 kg/ha): 3.5
Herbicidal rating ORYSAT (ORYSAT (Rice, Tebonnet); rate 0.0625 kg/ha): 4.0
Herbicidal rating GLXMAW ([7]; rate 0.0156 kg/ha): 5.0
Herbicidal rating GLXMAW ([7]; rate 0.0313 kg/ha): 6.0
Herbicidal rating GLXMAW ([7]; rate 0.0625 kg/ha): 6.0
